Numbers after ± are expanded uncertainties.
Assays:
[1] = 101.33 kPa, Liquid; for thermal conductivity: transient hot wire; for mass density: Vibrating tube method; for viscosity: Cone and plate viscometry; for electrical conductivity: Direct current cell with electrodes
[2] = molar heat capacity at constant pressure; details: 101.33 kPa, Liquid, Small sample (50 mg) DSC

Question: With `CCCCCC(=O)[O-].CCCCCCCCCCCCCC[P+](CCCCCC)(CCCCCC)CCCCCC` [trihexyl(tetradecyl)phosphonium hexanoate] as the compound, how does the thermal conductivity ([1]; 278.22 K) read?
Answer: 0.1591 ± 0.0095 W/m/K

Question: What about the thermal conductivity ([1]; 287.73 K) of the same compound?
Answer: 0.1574 ± 0.01 W/m/K

Question: And the mass density ([1]; 293.15 K)?
Answer: 888.5 ± 1.9 kg/m3

Question: And the viscosity ([1]; 293.2 K)?
Answer: 435.1 ± 32 mPa·s

Question: What about the mass density ([1]; 298.15 K) of the same compound?
Answer: 885.5 ± 1.9 kg/m3

Question: And the viscosity ([1]; 298.2 K)?
Answer: 343.1 ± 24 mPa·s

Question: What about the thermal conductivity ([1]; 298.98 K) of the same compound?
Answer: 0.156 ± 0.0096 W/m/K

Question: What about the electrical conductivity ([1]; 299.6 K) of the same compound?
Answer: 0.0033 ± 0.00018 S/m

Question: And the mass density ([1]; 303.15 K)?
Answer: 882.3 ± 1.9 kg/m3

Question: What about the viscosity ([1]; 303.2 K) of the same compound?
Answer: 260.7 ± 18 mPa·s

Question: What about the electrical conductivity ([1]; 303.8 K) of the same compound?
Answer: 0.00454 ± 0.00021 S/m

Question: And the thermal conductivity ([1]; 307.3 K)?
Answer: 0.1547 ± 0.01 W/m/K

Question: And the electrical conductivity ([1]; 308.1 K)?
Answer: 0.00563 ± 0.00026 S/m

Question: And the viscosity ([1]; 308.2 K)?
Answer: 200 ± 13 mPa·s

Question: And the mass density ([1]; 313.15 K)?
Answer: 876 ± 1.9 kg/m3

Question: What about the viscosity ([1]; 313.2 K) of the same compound?
Answer: 155.8 ± 10 mPa·s

Question: And the electrical conductivity ([1]; 313.9 K)?
Answer: 0.00765 ± 0.00034 S/m

Question: What about the thermal conductivity ([1]; 318.15 K) of the same compound?
Answer: 0.1533 ± 0.01 W/m/K

Question: And the viscosity ([1]; 318.2 K)?
Answer: 123.4 ± 7.9 mPa·s

Question: And the electrical conductivity ([1]; 318.4 K)?
Answer: 0.00943 ± 0.00041 S/m

Question: What about the mass density ([1]; 323.15 K) of the same compound?
Answer: 869.7 ± 1.9 kg/m3

Question: And the viscosity ([1]; 323.2 K)?
Answer: 99.18 ± 6.2 mPa·s

Question: What about the electrical conductivity ([1]; 323.6 K) of the same compound?
Answer: 0.0118 ± 0.00052 S/m

Question: What about the electrical conductivity ([1]; 328 K) of the same compound?
Answer: 0.0144 ± 0.00063 S/m

Question: And the viscosity ([1]; 328.2 K)?
Answer: 80.79 ± 5 mPa·s

Question: What about the thermal conductivity ([1]; 329.17 K) of the same compound?
Answer: 0.151 ± 0.011 W/m/K

Question: What about the mass density ([1]; 333.15 K) of the same compound?
Answer: 863.6 ± 1.8 kg/m3

Question: What about the viscosity ([1]; 333.2 K) of the same compound?
Answer: 66.6 ± 4.1 mPa·s

Question: What about the electrical conductivity ([1]; 333.6 K) of the same compound?
Answer: 0.018 ± 0.00078 S/m

Question: And the thermal conductivity ([1]; 336.96 K)?
Answer: 0.15 ± 0.011 W/m/K

Question: And the viscosity ([1]; 338.2 K)?
Answer: 55.39 ± 3.4 mPa·s

Question: And the electrical conductivity ([1]; 338.9 K)?
Answer: 0.0223 ± 0.001 S/m

Question: What about the electrical conductivity ([1]; 343 K) of the same compound?
Answer: 0.026 ± 0.0011 S/m

Question: What about the mass density ([1]; 343.15 K) of the same compound?
Answer: 857.5 ± 1.8 kg/m3

Question: What about the viscosity ([1]; 343.2 K) of the same compound?
Answer: 46.46 ± 2.9 mPa·s

Question: What about the thermal conductivity ([1]; 347.73 K) of the same compound?
Answer: 0.1497 ± 0.011 W/m/K

Question: What about the viscosity ([1]; 348.2 K) of the same compound?
Answer: 39.52 ± 2.4 mPa·s

Question: What about the electrical conductivity ([1]; 349.3 K) of the same compound?
Answer: 0.0325 ± 0.0014 S/m

Question: What about the mass density ([1]; 353.15 K) of the same compound?
Answer: 851.5 ± 1.8 kg/m3

Question: What about the viscosity ([1]; 353.2 K) of the same compound?
Answer: 33.7 ± 2.1 mPa·s

Question: And the thermal conductivity ([1]; 357.74 K)?
Answer: 0.1476 ± 0.01 W/m/K

Question: What about the viscosity ([1]; 358.2 K) of the same compound?
Answer: 28.97 ± 1.8 mPa·s

Question: And the mass density ([1]; 363.15 K)?
Answer: 845.4 ± 1.8 kg/m3

Question: And the viscosity ([1]; 363.2 K)?
Answer: 25.05 ± 1.5 mPa·s

Question: And the viscosity ([1]; 368.2 K)?
Answer: 21.82 ± 1.3 mPa·s

Question: What about the “molar heat capacity at constant pressure” value ([2]; 293.15 K) of the same compound?
Answer: 1133.3 ± 70 J/K/mol

Question: What about the “molar heat capacity at constant pressure” value ([2]; 298.15 K) of the same compound?
Answer: 1141.7 ± 70 J/K/mol

Question: And the “molar heat capacity at constant pressure” value ([2]; 303.15 K)?
Answer: 1149.5 ± 71 J/K/mol

Question: And the “molar heat capacity at constant pressure” value ([2]; 308.15 K)?
Answer: 1156.7 ± 71 J/K/mol

Question: And the “molar heat capacity at constant pressure” value ([2]; 313.15 K)?
Answer: 1163.9 ± 72 J/K/mol

Question: And the “molar heat capacity at constant pressure” value ([2]; 318.15 K)?
Answer: 1169.3 ± 72 J/K/mol

Question: And the “molar heat capacity at constant pressure” value ([2]; 323.15 K)?
Answer: 1176.4 ± 72 J/K/mol

Question: What about the “molar heat capacity at constant pressure” value ([2]; 328.15 K) of the same compound?
Answer: 1182.4 ± 73 J/K/mol

Question: What about the “molar heat capacity at constant pressure” value ([2]; 333.15 K) of the same compound?
Answer: 1189 ± 73 J/K/mol

Question: And the “molar heat capacity at constant pressure” value ([2]; 338.15 K)?
Answer: 1196.8 ± 74 J/K/mol

Question: What about the “molar heat capacity at constant pressure” value ([2]; 343.15 K) of the same compound?
Answer: 1204 ± 74 J/K/mol

Question: What about the “molar heat capacity at constant pressure” value ([2]; 348.15 K) of the same compound?
Answer: 1211.2 ± 75 J/K/mol

Question: What about the “molar heat capacity at constant pressure” value ([2]; 353.15 K) of the same compound?
Answer: 1219 ± 75 J/K/mol

Question: What about the “molar heat capacity at constant pressure” value ([2]; 358.15 K) of the same compound?
Answer: 1227.4 ± 75 J/K/mol

Question: And the “molar heat capacity at constant pressure” value ([2]; 363.15 K)?
Answer: 1235.2 ± 76 J/K/mol

From the NIST ThermoML archive (doi:10.1016/j.jct.2018.02.013)
